Source: ChEMBL document CHEMBL5260842 (J Med Chem, 2019)
Calls of active or inactive are those of the source. The rule behind the calls is not given here.

Legend:
[1] = target: T1, von Hippel-Lindau disease tumor suppressor/Androgen receptor (Homo sapiens, UniProt P10275+P40337); assay: Protac activity at VHL/AR in AR-positive human LNCaP cells assessed as induction of androgen receptor degradation at 100 nM preincubated with N-((1r,3r)-3-(3-chloro-4-cyanophenoxy)-2,2,4,4-tetramethylcyclobutyl)-1-(2-hydroxyethyl)-1H-pyrazole-4-carboxamide for 2 hrs followed by compound addition and measured after 6 hrs by Western blot analysis; assay type: cell-based
Target sequence in this assay (P10275 whole entry, looked up): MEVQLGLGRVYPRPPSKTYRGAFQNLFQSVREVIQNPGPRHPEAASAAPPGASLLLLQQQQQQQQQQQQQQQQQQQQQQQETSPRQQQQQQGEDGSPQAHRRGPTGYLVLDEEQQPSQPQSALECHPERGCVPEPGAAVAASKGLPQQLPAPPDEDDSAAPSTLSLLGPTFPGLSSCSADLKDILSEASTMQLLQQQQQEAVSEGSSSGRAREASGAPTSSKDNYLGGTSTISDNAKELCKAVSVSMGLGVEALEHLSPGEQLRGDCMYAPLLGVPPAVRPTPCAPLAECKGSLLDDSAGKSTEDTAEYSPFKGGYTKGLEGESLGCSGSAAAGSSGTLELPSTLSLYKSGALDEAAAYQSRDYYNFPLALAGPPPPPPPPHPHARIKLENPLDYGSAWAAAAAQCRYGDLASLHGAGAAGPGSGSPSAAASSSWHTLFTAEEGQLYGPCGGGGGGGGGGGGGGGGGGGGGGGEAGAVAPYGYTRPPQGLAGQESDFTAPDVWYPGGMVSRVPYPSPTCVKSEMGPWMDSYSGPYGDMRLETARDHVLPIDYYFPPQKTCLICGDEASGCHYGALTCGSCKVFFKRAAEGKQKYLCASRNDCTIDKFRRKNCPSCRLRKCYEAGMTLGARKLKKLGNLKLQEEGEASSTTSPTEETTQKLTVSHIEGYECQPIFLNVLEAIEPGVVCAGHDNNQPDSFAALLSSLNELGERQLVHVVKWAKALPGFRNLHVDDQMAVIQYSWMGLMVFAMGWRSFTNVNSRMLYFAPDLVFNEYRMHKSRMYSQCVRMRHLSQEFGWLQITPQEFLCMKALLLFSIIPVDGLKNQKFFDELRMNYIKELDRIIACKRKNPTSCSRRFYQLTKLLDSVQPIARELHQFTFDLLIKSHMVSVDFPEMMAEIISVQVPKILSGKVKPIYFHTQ
Target sequence in this assay (P40337 whole entry, looked up): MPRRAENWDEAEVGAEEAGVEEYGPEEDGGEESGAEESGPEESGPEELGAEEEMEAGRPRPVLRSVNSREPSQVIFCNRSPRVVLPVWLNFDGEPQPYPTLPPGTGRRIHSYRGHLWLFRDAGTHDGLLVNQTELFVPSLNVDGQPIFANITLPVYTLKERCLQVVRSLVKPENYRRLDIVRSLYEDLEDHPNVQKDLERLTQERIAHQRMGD

[2] = system: VCaP; assay: Downregulation of ERG gene expression in human VCaP cells measured after 24 hrs by charcoal stripped serum based qRT-PCR analysis; assay type: functional, cell-based; settings: dose 1-1000 nM
[3] = system: LNCaP; assay: Cytotoxicity against AR-positive human LNCaP cells assessed as inhibition of cell growth incubated for 7 days in presence of AR agonist, R1881 in charcoal stripped medium by WST-8 assay; assay type: functional, cell-based; settings: 168 h
[4] = Downregulation of PSA mRNA expression in human VCaP cells at 10 nM measured after 24 hrs by regular serum based qRT-PCR analysis relative to control; assay type: functional
[5] = Downregulation of PSA mRNA expression in human LNCaP cells at 10 nM measured after 24 hrs by qRT-PCR analysis relative to control; assay type: functional
[6] = target: T1, von Hippel-Lindau disease tumor suppressor/Androgen receptor; assay: Protac activity at VHL/AR in human 22Rv1 cells assessed as induction of protein degradation measured after 24 hrs by Western blot analysis; assay type: cell-based
Target sequence in this assay (P10275 whole entry): as the sequence (P10275 whole entry, looked up) above
Target sequence in this assay (P40337 whole entry): as the sequence (P40337 whole entry, looked up) above

[7] = system: von Hippel-Lindau disease tumor suppressor/Androgen receptor (Homo sapiens); assay: In vivo protac activity at VHL/AR in human VCaP cells xenografted SCID mouse assessed as reduction in AR protein level in tumor at 50 mg/kg, ip administered as single dose measured after 3 to 48 hrs Western blot analysis; settings: time 3-48 hrs
[8] = target: T1, von Hippel-Lindau disease tumor suppressor/Androgen receptor; assay: Protac activity at VHL/AR in AR-positive human VCaP cells assessed as induction of androgen receptor degradation at 100 nM preincubated with NEDD8 activating E1 enzyme inhibitor, MLN4924 for 2 hrs followed by compound addition and measured after 6 hrs by Western blot analysis; assay type: cell-based
Target sequence in this assay (P10275 whole entry, looked up): as the sequence (P10275 whole entry, looked up) above
Target sequence in this assay (P40337 whole entry, looked up): as the sequence (P40337 whole entry, looked up) above

[9] = system: LNCaP; assay: Downregulation of TMPRSS2 mRNA expression in human LNCaP cells measured after 24 hrs by qRT-PCR analysis; assay type: functional, cell-based; settings: dose 0.1-10000 nM
[10] = system: CWR22R; assay: Potency index, ratio of enzalutamide IC50 to test compound IC50 for cytotoxicity against AR-positive human 22Rv1 cells assessed as inhibition of cell growth incubated for 7 days in regular culture medium by WST-8 assay; assay type: functional; settings: time 7 day
[11] = target: T1, von Hippel-Lindau disease tumor suppressor/Androgen receptor; assay: Protac activity at VHL/AR in AR-positive human VCaP cells assessed as induction of androgen receptor degradation at 100 nM preincubated with VHL ligand, (2S,4R)-4-hydroxy-1-((R)-3-methyl-2-(3-methylisoxazol-5-yl)butanoyl)-N-((S)-3-(methylamino)-1-(4-(4-methylthiazol-5-yl)phenyl)-3-oxopropyl)pyrrolidine-2-carboxamide for 2 hrs followed by compound addition and measured after 6 hrs by Western blot analysis; assay type: cell-based
Target sequence in this assay (P10275 whole entry, looked up): as the sequence (P10275 whole entry, looked up) above
Target sequence in this assay (P40337 whole entry, looked up): as the sequence (P40337 whole entry, looked up) above

[12] = target: T1, von Hippel-Lindau disease tumor suppressor/Androgen receptor; assay: Protac activity at VHL/AR in AR-positive human LNCaP cells assessed as induction of androgen receptor degradation at 0.1 uM incubated for 6 hrs by Western blot analysis (reference value: 0%); assay type: cell-based
Target sequence in this assay (P10275 whole entry, looked up): as the sequence (P10275 whole entry, looked up) above
Target sequence in this assay (P40337 whole entry, looked up): as the sequence (P40337 whole entry, looked up) above

[13] = system: VCaP; assay: Downregulation of PSA mRNA expression in human VCaP cells measured after 24 hrs by regular serum based qRT-PCR analysis; assay type: functional, cell-based; settings: dose 1-1000 nM
[14] = target: T1, von Hippel-Lindau disease tumor suppressor/Androgen receptor; assay: Protac activity at VHL/AR in AR-positive human VCaP cells assessed as induction of androgen receptor degradation at 100 nM preincubated with N-((1r,3r)-3-(3-chloro-4-cyanophenoxy)-2,2,4,4-tetramethylcyclobutyl)-1-(2-hydroxyethyl)-1H-pyrazole-4-carboxamide for 2 hrs followed by compound addition and measured after 6 hrs by Western blot analysis; assay type: cell-based
Target sequence in this assay (P10275 whole entry, looked up): as the sequence (P10275 whole entry, looked up) above
Target sequence in this assay (P40337 whole entry, looked up): as the sequence (P40337 whole entry, looked up) above

[15] = system: VCaP; assay: Downregulation of PSA mRNA expression in human VCaP cells measured after 24 hrs by charcoal stripped serum based qRT-PCR analysis; assay type: functional, cell-based; settings: dose 1-1000 nM
[16] = system: CWR22R; assay: Cytotoxicity against AR-positive human 22Rv1 cells assessed as inhibition of cell growth incubated for 7 days in regular culture medium by WST-8 assay; assay type: functional, cell-based; settings: 22Rv1, 168 h
[17] = target: T1, von Hippel-Lindau disease tumor suppressor/Androgen receptor; assay: Protac activity at VHL/AR in AR-positive human LNCaP cells assessed as induction of androgen receptor degradation at 100 nM preincubated with VHL ligand, (2S,4R)-4-hydroxy-1-((R)-3-methyl-2-(3-methylisoxazol-5-yl)butanoyl)-N-((S)-3-(methylamino)-1-(4-(4-methylthiazol-5-yl)phenyl)-3-oxopropyl)pyrrolidine-2-carboxamide for 2 hrs followed by compound addition and measured after 6 hrs by Western blot analysis; assay type: cell-based
Target sequence in this assay (P10275 whole entry, looked up): as the sequence (P10275 whole entry, looked up) above
Target sequence in this assay (P40337 whole entry, looked up): as the sequence (P40337 whole entry, looked up) above

[18] = Downregulation of PSA mRNA expression in human VCaP cells at 10 nM measured after 24 hrs by charcoal stripped serum based qRT-PCR analysis relative to control; assay type: functional
[19] = system: VCaP; assay: Cytotoxicity against AR-positive human VCaP cells assessed as inhibition of cell growth incubated for 7 days in presence of AR agonist, R1881 in charcoal stripped medium by WST-8 assay; assay type: functional, cell-based; settings: 168 h
[20] = system: VCaP; assay: Downregulation of TMPRSS2 mRNA expression in human VCaP cells measured after 24 hrs by charcoal stripped serum based qRT-PCR analysis; assay type: functional, cell-based; settings: dose 1-1000 nM
[21] = target: T1, von Hippel-Lindau disease tumor suppressor/Androgen receptor; assay: Protac activity at VHL/AR in AR-positive human LNCaP cells assessed as reduction in protein level at 100 nM measured after 2 to 4 hrs by Western blot analysis; assay type: cell-based; settings: time 2-4 hrs
[22] = target: T1, von Hippel-Lindau disease tumor suppressor/Androgen receptor; assay: In vivo protac activity at VHL/AR in human VCaP cells xenografted SCID mouse assessed as reduction in PSA protein level in tumor at 50 mg/kg, ip administered as single dose measured after 3 to 48 hrs Western blot analysis; assay type: functional, organism-based; settings: time 3-48 hrs
[23] = system: VCaP; assay: Potency index, ratio of enzalutamide IC50 to test compound IC50 for cytotoxicity against AR-positive human VCaP cells assessed as inhibition of cell growth incubated for 7 days in presence of AR agonist, R1881 in charcoal stripped medium by WST-8 assay; assay type: functional; settings: time 7 day
[24] = target: T1, von Hippel-Lindau disease tumor suppressor/Androgen receptor; assay: Protac activity at VHL/AR in human VCaP cells assessed as induction of protein degradation measured after 24 hrs by Western blot analysis; assay type: cell-based
Target sequence in this assay (P10275 whole entry): as the sequence (P10275 whole entry, looked up) above
Target sequence in this assay (P40337 whole entry): as the sequence (P40337 whole entry, looked up) above

[25] = system: VCaP; assay: Downregulation of FKBP5 mRNA expression in human VCaP cells measured after 24 hrs by charcoal stripped serum based qRT-PCR analysis; assay type: functional, cell-based; settings: dose 1-1000 nM
[26] = target: T1, von Hippel-Lindau disease tumor suppressor/Androgen receptor; assay: Protac activity at VHL/AR in AR-positive human VCaP cells assessed as reduction in protein level at 100 nM measured after 2 to 4 hrs by Western blot analysis; assay type: cell-based; settings: time 2-4 hrs
[27] = system: LNCaP; assay: Downregulation of PSA mRNA expression in human LNCaP cells measured after 24 hrs by qRT-PCR analysis; assay type: functional, cell-based; settings: dose 0.1-10000 nM
[28] = target: T1, von Hippel-Lindau disease tumor suppressor/Androgen receptor; assay: Protac activity at VHL/AR in AR-positive human VCaP cells assessed as induction of androgen receptor degradation at 100 nM preincubated with proteasome inhibitor, MG132 for 2 hrs followed by compound addition and measured after 6 hrs by Western blot analysis; assay type: cell-based
[29] = system: VCaP; assay: Downregulation of TMPRSS2 mRNA expression in human VCaP cells measured after 24 hrs by regular serum based qRT-PCR analysis; assay type: functional, cell-based; settings: dose 1-1000 nM
[30] = target: T1, von Hippel-Lindau disease tumor suppressor/Androgen receptor; assay: Protac activity at VHL/AR in AR-positive human LNCaP cells assessed as induction of androgen receptor degradation at 100 nM preincubated with NEDD8 activating E1 enzyme inhibitor, MLN4924 for 2 hrs followed by compound addition and measured after 6 hrs by Western blot analysis; assay type: cell-based

For Cc1ncsc1-c1ccc([C@H](CC(=O)N2CCC(N3CCC(C#Cc4ccc(C(=O)N[C@H]5C(C)(C)[C@H](Oc6ccc(C#N)c(Cl)c6)C5(C)C)cc4)CC3)CC2)NC(=O)[C@@H]2C[C@@H](O)CN2C(=O)[C@@H](NC(=O)C2(F)CC2)C(C)(C)C)cc1, the Activity [1] was “inactive”, the Activity [2] was “Dose-Dependent Effect” and the IC50 [3] was 0.25 nM. For the same compound, the Activity [4] was over 50%, the Activity [5] was over 50% and the EC50 [6] was 10.4 nM. The Activity [7] was “Active”, the Activity [8] was “inactive” and the Activity [9] was “Dose-Dependent Effect”. The “Ratio IC50” value [10] was over 100, the Activity [11] was “inactive” and the Activity [12] was 99%. For the same compound, the Activity [13] was “Dose-Dependent Effect”, the Activity [14] was “inactive” and the Activity [15] was “Dose-Dependent Effect”. For the same compound, the IC50 [16] was 183 nM, the Activity [17] was “inactive” and the Activity [18] was over 50%. For the same compound, the IC50 [19] was 0.34 nM, the Activity [20] was “Dose-Dependent Effect” and the Activity [21] was “Active”. For the same compound, the Activity [22] was “Active”, the “Ratio IC50” value [23] was over 100 and the EC50 [24] was 0.76 nM. For the same compound, the Activity [25] was “Dose-Dependent Effect”, the Activity [26] was “Active” and the Activity [27] was “Dose-Dependent Effect”. For the same compound, the Activity [28] was “inactive”, the Activity [29] was “Dose-Dependent Effect” and the Activity [30] was “inactive”.
